Experiments:
[1] = molecular target: Muscarinic acetylcholine receptor M4 (Homo sapiens) (UniProt P08173); settings: Compound concentration 10.0 uM
[2] = molecular target: Sodium-dependent serotonin transporter (Homo sapiens) (UniProt P31645); settings: Compound concentration 10.0 uM
[3] = molecular target: T1, Sigma intracellular receptor 2 (Homo sapiens, UniProt Q5BJF2); settings: Compound concentration 10.0 uM
Histamine H2 receptor [4] = molecular target: T2, Histamine H2 receptor (Homo sapiens, UniProt P25021); settings: Compound concentration 10.0 uM
[5] = molecular target: T3, Sodium-dependent dopamine transporter (Homo sapiens, UniProt Q01959); settings: Compound concentration 10.0 uM
[6] = molecular target: Beta-3 adrenergic receptor (Homo sapiens) (UniProt P13945); settings: Compound concentration 10.0 uM
[7] = molecular target: 5-hydroxytryptamine receptor 3A (Homo sapiens) (UniProt P46098); settings: Compound concentration 10.0 uM
[8] = molecular target: T4, 5-hydroxytryptamine receptor 1D (Homo sapiens, UniProt P28221); settings: Compound concentration 10.0 uM
[9] = molecular target: Muscarinic acetylcholine receptor M1 (Homo sapiens) (UniProt P11229); settings: Compound concentration 10.0 uM
[10] = molecular target: T4, 5-hydroxytryptamine receptor 1D; test: GPCRScan assay: inhibition of 5-HT1D; design: radioligand conc. used [nm] 1.0 – 2.0, parental cells HEKT
[11] = molecular target: D(3) dopamine receptor (Homo sapiens) (UniProt P35462); settings: Compound concentration 10.0 uM
[12] = molecular target: 5-hydroxytryptamine receptor 1A (Homo sapiens) (UniProt P08908); settings: Compound concentration 10.0 uM
[13] = molecular target: 5-hydroxytryptamine receptor 7 (Homo sapiens) (UniProt P34969); settings: Compound concentration 10.0 uM
[14] = molecular target: Alpha-2C adrenergic receptor (Homo sapiens) (UniProt P18825); settings: Compound concentration 10.0 uM
[15] = molecular target: Delta-type opioid receptor (Homo sapiens) (UniProt P41143); settings: Compound concentration 10.0 uM
Histamine H4 receptor [16] = molecular target: T5, Histamine H4 receptor (Homo sapiens, UniProt Q9H3N8); settings: Compound concentration 10.0 uM
[17] = molecular target: Alpha-2A adrenergic receptor (Homo sapiens) (UniProt P08913); settings: Compound concentration 10.0 uM
[18] = molecular target: D(1B) dopamine receptor (Homo sapiens) (UniProt P21918); settings: Compound concentration 10.0 uM
[19] = molecular target: T6, Sigma non-opioid intracellular receptor 1 (Homo sapiens, UniProt Q99720); settings: Compound concentration 10.0 uM
[20] = molecular target: T1, Sigma intracellular receptor 2; test: GPCRScan assay: inhibition of Sigma 2; design: radioligand conc. used [nm] 5.0, parental cells HEKT
[21] = molecular target: 5-hydroxytryptamine receptor 5A (Homo sapiens) (UniProt P47898); settings: Compound concentration 10.0 uM
[22] = molecular target: D(4) dopamine receptor (Homo sapiens) (UniProt P21917); settings: Compound concentration 10.0 uM
[23] = molecular target: 5-hydroxytryptamine receptor 2B (Homo sapiens) (UniProt P41595); settings: Compound concentration 10.0 uM
[24] = molecular target: Histamine H3 receptor (Homo sapiens) (UniProt Q9Y5N1); settings: Compound concentration 10.0 uM
[25] = molecular target: Muscarinic acetylcholine receptor M5 (Homo sapiens) (UniProt P08912); settings: Compound concentration 10.0 uM
[26] = molecular target: T7, Sodium-dependent noradrenaline transporter (Homo sapiens, UniProt P23975); settings: Compound concentration 10.0 uM
[27] = molecular target: T8, GABA-A receptor; anion channel (Rattus norvegicus) (UniProt O09028+P15431+P18506+P18508+P19969+P20236+P23574+P23576+P28471+P28473+P30191+P62813+P63079+P63138+Q91ZM7+Q9ES14); settings: Compound concentration 10.0 uM
D(2) dopamine receptor [28] = molecular target: T9, D(2) dopamine receptor (Homo sapiens, UniProt P14416); settings: Compound concentration 10.0 uM
[29] = molecular target: T7, Sodium-dependent noradrenaline transporter; test: GPCRScan assay: inhibition of NET; design: radioligand conc. used [nm] 1.3 – 5.0, parental cells stable HEK
Histamine H2 receptor [30] = molecular target: T2, Histamine H2 receptor; test: GPCRScan assay: inhibition of H2; design: radioligand conc. used [nm] 0.02 – 0.05, parental cells Stable HEK
[31] = molecular target: Mu-type opioid receptor (Homo sapiens) (UniProt P35372); settings: Compound concentration 10.0 uM
[32] = molecular target: Muscarinic acetylcholine receptor M3 (Homo sapiens) (UniProt P20309); settings: Compound concentration 10.0 uM
[33] = molecular target: Beta-1 adrenergic receptor (Homo sapiens) (UniProt P08588); settings: Compound concentration 10.0 uM
[34] = molecular target: Kappa-type opioid receptor (Homo sapiens) (UniProt P41145); settings: Compound concentration 10.0 uM
[35] = molecular target: Histamine H1 receptor (Homo sapiens) (UniProt P35367); settings: Compound concentration 10.0 uM
[36] = molecular target: 5-hydroxytryptamine receptor 2A (Homo sapiens) (UniProt P28223); settings: Compound concentration 10.0 uM
[37] = molecular target: Alpha-1B adrenergic receptor (Homo sapiens) (UniProt P35368); settings: Compound concentration 10.0 uM
[38] = molecular target: T3, Sodium-dependent dopamine transporter; test: GPCRScan assay: inhibition of DAT; design: radioligand conc. used [nm] 3.6 – 16.0, parental cells stable HEK
[39] = molecular target: D(1A) dopamine receptor (Homo sapiens) (UniProt P21728); settings: Compound concentration 10.0 uM
[40] = molecular target: Alpha-2B adrenergic receptor (Homo sapiens) (UniProt P18089); settings: Compound concentration 10.0 uM
[41] = molecular target: 5-hydroxytryptamine receptor 1B (Homo sapiens) (UniProt P28222); settings: Compound concentration 10.0 uM
[42] = molecular target: 5-hydroxytryptamine receptor 1E (Homo sapiens) (UniProt P28566); settings: Compound concentration 10.0 uM
[43] = molecular target: T6, Sigma non-opioid intracellular receptor 1; test: GPCRScan assay: inhibition of Sigma 1; design: radioligand conc. used [nm] 4.0 – 5.0, parental cells HEKT
[44] = molecular target: Muscarinic acetylcholine receptor M2 (Homo sapiens) (UniProt P08172); settings: Compound concentration 10.0 uM
[45] = molecular target: Peptidyl-prolyl cis-trans isomerase FKBP3 (Homo sapiens, UniProt Q00688); test: Competitive fluorescence polarization binding assay (FKBP3)
[46] = molecular target: Peptidyl-prolyl cis-trans isomerase FKBP4 (Homo sapiens, UniProt Q02790); test: Competitive fluorescence polarization binding assay (FKBP4)
[47] = molecular target: 5-hydroxytryptamine receptor 6 (Homo sapiens) (UniProt P50406); settings: Compound concentration 10.0 uM
Histamine H4 receptor [48] = molecular target: T5, Histamine H4 receptor; test: GPCRScan assay: inhibition of H4; design: radioligand conc. used [nm] 1.0 – 5.0, parental cells HEK T
Rattus norvegicus = species: Rattus norvegicus; settings: Compound concentration 10.0 uM
[49] = molecular target: Beta-2 adrenergic receptor (Homo sapiens) (UniProt P07550); settings: Compound concentration 10.0 uM
[50] = molecular target: 5-hydroxytryptamine receptor 2C (Homo sapiens) (UniProt P28335); settings: Compound concentration 10.0 uM
[51] = molecular target: Alpha-1A adrenergic receptor (Homo sapiens) (UniProt P35348); settings: Compound concentration 10.0 uM
D(2) dopamine receptor [52] = molecular target: T9, D(2) dopamine receptor; test: GPCRScan assay: inhibition of D2; design: radioligand conc. used [nm] 0.4 – 1.0, parental cells stable fibroblast
[53] = molecular target: 5-hydroxytryptamine receptor 2C (Homo sapiens, UniProt P28335); test: GPCRScan assay: inhibition of 5-HT2C; design: radioligand conc. used [nm] 1.0 – 2.5, parental cells HEK T
[54] = molecular target: Peptidyl-prolyl cis-trans isomerase FKBP2 (Homo sapiens, UniProt P26885); test: Competitive fluorescence polarization binding assay (FKBP2)
[55] = molecular target: T8, GABA-A receptor; anion channel (Rattus norvegicus); settings: Compound concentration 10.0 uM; remark: listed apart in the source

T1 sequence (Q5BJF2 whole entry): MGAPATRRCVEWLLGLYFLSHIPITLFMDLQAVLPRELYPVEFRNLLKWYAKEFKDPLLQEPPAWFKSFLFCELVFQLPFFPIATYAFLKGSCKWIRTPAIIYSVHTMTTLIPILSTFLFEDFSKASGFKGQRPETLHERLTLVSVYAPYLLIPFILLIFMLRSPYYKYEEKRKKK
T4 sequence (P28221 whole entry): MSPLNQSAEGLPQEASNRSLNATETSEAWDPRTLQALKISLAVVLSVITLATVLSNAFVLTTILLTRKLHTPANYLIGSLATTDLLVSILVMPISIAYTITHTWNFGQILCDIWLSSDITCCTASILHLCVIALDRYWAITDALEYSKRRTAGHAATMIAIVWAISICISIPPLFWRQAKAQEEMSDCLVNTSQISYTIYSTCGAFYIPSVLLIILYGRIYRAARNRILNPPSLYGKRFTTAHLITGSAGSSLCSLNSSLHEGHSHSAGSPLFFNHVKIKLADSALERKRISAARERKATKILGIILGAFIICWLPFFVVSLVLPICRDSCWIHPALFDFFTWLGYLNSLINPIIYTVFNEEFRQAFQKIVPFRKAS
T5 sequence (Q9H3N8 whole entry): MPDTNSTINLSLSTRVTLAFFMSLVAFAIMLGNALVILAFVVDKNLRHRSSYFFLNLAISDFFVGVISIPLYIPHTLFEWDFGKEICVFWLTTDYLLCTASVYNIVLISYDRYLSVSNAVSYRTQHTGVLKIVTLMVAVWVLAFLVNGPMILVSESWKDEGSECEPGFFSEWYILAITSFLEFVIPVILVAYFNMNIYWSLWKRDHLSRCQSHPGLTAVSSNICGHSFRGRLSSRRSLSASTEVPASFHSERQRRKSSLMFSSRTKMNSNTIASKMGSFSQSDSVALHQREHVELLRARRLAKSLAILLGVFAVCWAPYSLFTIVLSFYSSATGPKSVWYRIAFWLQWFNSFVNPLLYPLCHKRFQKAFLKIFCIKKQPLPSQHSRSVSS
T3 sequence (Q01959 whole entry): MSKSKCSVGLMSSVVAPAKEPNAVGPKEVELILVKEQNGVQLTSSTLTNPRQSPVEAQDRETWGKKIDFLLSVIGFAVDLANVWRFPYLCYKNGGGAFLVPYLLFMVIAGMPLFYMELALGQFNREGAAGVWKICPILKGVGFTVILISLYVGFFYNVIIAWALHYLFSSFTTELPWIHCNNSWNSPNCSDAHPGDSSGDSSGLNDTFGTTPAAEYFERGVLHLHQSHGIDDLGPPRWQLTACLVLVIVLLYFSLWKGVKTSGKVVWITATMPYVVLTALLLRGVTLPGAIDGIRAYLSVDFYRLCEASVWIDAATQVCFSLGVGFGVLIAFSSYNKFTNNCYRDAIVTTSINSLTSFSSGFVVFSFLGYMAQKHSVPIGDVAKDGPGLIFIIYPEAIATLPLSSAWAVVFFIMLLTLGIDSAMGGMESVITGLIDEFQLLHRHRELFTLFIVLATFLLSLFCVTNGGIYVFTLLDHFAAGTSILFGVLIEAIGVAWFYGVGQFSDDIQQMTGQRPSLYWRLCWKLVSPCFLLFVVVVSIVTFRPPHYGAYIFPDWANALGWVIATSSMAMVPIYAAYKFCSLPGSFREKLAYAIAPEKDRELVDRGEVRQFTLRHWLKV
T7 sequence (P23975 whole entry): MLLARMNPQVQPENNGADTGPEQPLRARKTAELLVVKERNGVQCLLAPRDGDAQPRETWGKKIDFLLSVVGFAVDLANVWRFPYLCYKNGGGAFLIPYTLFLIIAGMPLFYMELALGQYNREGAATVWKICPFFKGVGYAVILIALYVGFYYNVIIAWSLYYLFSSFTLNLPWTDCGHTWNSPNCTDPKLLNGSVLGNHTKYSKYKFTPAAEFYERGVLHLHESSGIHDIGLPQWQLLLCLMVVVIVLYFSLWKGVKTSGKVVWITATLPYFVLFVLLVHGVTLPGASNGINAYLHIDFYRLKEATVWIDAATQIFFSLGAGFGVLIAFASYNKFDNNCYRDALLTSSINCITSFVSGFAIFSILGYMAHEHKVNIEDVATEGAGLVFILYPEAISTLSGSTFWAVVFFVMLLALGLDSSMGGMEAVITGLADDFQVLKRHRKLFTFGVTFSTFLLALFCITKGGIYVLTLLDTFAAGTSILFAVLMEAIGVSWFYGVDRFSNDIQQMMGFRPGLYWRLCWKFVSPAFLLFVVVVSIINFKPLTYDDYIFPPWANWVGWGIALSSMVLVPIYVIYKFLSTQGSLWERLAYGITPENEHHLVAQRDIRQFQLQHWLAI
T6 sequence (Q99720 whole entry): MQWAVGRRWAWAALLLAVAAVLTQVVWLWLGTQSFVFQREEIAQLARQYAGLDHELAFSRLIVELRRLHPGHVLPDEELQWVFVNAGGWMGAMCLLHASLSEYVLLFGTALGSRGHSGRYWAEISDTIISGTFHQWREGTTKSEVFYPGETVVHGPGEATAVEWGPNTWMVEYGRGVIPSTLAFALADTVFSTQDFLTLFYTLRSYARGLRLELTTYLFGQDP
T9 sequence (P14416 whole entry): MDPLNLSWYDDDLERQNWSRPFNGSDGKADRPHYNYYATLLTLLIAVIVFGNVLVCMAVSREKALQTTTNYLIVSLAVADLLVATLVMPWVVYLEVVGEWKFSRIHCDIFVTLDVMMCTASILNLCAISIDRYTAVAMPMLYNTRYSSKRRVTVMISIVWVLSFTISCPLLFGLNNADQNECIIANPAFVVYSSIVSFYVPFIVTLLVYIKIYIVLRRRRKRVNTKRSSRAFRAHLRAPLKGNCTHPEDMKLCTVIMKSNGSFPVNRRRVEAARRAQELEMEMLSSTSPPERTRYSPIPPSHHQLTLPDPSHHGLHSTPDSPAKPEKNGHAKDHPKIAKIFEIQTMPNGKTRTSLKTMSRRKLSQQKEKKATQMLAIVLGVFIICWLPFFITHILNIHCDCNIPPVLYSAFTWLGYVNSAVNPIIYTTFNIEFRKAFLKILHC
T2 sequence (P25021 whole entry): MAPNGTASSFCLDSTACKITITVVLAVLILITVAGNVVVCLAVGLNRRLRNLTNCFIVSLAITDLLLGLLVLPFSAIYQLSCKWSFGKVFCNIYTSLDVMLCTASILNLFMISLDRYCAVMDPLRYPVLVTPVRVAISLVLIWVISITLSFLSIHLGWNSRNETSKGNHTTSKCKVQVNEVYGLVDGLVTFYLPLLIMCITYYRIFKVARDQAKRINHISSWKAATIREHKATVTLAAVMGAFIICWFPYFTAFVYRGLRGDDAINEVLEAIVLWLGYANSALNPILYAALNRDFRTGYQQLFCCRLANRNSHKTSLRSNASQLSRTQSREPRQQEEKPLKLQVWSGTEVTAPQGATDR
Chain of 5-hydroxytryptamine receptor 2A (Homo sapiens) (P28223 whole entry): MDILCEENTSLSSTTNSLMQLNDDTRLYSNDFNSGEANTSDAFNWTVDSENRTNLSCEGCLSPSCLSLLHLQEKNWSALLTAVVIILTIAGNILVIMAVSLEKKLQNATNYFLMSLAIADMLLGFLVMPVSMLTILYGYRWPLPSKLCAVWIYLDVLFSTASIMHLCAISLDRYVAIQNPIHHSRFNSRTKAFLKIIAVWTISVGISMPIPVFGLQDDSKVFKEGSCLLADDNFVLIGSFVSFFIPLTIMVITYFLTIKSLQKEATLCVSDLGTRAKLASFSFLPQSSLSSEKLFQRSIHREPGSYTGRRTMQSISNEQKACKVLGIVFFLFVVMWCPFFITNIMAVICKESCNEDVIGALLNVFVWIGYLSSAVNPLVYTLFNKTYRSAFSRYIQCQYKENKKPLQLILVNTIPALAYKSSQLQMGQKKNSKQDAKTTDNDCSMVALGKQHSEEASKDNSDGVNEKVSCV
Chain of Muscarinic acetylcholine receptor M3 (Homo sapiens) (P20309 whole entry, looked up): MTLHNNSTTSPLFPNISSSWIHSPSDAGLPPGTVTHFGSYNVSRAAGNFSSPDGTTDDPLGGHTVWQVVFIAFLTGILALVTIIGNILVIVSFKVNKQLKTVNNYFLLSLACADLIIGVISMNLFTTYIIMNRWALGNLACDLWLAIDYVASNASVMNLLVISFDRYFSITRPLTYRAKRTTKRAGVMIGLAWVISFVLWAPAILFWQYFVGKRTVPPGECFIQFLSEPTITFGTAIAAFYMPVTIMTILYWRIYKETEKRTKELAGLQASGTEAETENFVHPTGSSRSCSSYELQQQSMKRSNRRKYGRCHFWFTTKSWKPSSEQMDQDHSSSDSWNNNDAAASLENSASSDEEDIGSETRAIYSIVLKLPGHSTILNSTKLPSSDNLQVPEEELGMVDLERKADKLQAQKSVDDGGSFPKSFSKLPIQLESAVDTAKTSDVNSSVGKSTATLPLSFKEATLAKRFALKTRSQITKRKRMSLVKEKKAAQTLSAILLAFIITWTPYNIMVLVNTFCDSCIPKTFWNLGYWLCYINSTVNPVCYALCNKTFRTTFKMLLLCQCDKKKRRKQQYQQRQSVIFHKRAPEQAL
Chain of 5-hydroxytryptamine receptor 1B (Homo sapiens) (P28222 whole entry): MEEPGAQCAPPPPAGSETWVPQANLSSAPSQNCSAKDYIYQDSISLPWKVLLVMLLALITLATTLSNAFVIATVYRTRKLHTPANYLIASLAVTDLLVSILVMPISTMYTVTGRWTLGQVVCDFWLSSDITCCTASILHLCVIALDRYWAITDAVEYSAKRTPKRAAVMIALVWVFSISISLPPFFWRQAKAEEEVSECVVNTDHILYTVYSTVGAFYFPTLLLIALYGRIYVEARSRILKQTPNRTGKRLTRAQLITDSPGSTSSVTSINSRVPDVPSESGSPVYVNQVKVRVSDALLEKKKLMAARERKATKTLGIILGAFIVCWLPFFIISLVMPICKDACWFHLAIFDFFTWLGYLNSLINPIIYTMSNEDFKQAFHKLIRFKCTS
Chain of Peptidyl-prolyl cis-trans isomerase FKBP3 (Q00688 whole entry): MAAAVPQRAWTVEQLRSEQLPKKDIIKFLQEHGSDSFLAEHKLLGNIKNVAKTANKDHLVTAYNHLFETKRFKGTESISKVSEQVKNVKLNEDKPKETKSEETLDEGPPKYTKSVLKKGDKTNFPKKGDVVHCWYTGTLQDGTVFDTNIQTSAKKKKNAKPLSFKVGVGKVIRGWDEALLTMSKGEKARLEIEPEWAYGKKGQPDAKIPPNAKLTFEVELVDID

## COc1ccc(CC[C@@H](OC(=O)[C@H]2CCCCN2C(=O)[C@@H](c2cc(OC)c(OC)c(OC)c2)C2CCCCC2)c2cccc(OCCN3CCOCC3)c2)cc1OC
[1]
  inhibition: 18%
[2]
  inhibition: -5.1%
[3]
  inhibition: 98.4%
Histamine H2 receptor [4]
  inhibition: 50.7%
[5]
  inhibition: 68.4%
[6]
  inhibition: 35.1%
[7]
  inhibition: 0.13%
[8]
  inhibition: 57%
[9]
  inhibition: 4.82%
[10]; read-out: Ki
  Ki: 3130 nM
[10]; read-out: pKi (converted)
  Ki: 3090 nM
[11]
  inhibition: 28.1%
[12]
  inhibition: 12.2%
[13]
  inhibition: -3.87%
[14]
  inhibition: 25.2%
[15]
  inhibition: 4.39%
Histamine H4 receptor [16]
  inhibition: 49.5%
[17]
  inhibition: 26.6%
[18]
  inhibition: 4.07%
[19]
  inhibition: 58.1%
[20]
  Ki: 409 nM
[21]
  inhibition: 6.87%
[22]
  inhibition: 9.71%
[23]
  inhibition: 19.4%
[24]
  inhibition: 10.2%
[25]
  inhibition: -1.68%
[26]
  inhibition: 52.4%
[27]
  inhibition: 20.6%
D(2) dopamine receptor [28]
  inhibition: 14.7%
[29]
  Ki: > 10000 nM
  pKi: < 5
Histamine H2 receptor [30]; read-out: Ki
  Ki: 2960 nM
Histamine H2 receptor [30]; read-out: pKi (converted)
  Ki: 2690 nM
[31]
  inhibition: 4.34%
[32]
  inhibition: -3.44%
[33]
  inhibition: -0.58%
[34]
  inhibition: 5.75%
[35]
  inhibition: 14.2%
[36]
  inhibition: 4.4%
[37]
  inhibition: -5.8%
[38]; read-out: Ki
  Ki: 2180 nM
[38]; read-out: pKi (converted)
  Ki: 2190 nM
[39]
  inhibition: 19.1%
[40]
  inhibition: 19.7%
[41]
  inhibition: 30.2%
[42]
  inhibition: 12.6%
[43]
  Ki: 2850 nM

## COc1ccc(CC[C@@H](OC(=O)[C@@H]2CCCCN2C(=O)[C@H](c2cc(OC)c(OC)c(OC)c2)C2CCCCC2)c2cccc(OCCN3CCOCC3)c2)cc1OC
[1]
  inhibition: 3.4%
[44]
  inhibition: 7%
[2]
  inhibition: 9.5%
[3]
  inhibition: 84.9%
Histamine H2 receptor [4]
  inhibition: 30.3%
[5]
  inhibition: 41%
[6]
  inhibition: 37.1%
[7]
  inhibition: 7.6%
[8]
  inhibition: 15.5%
[9]
  inhibition: 7.5%
[11]
  inhibition: 39.7%
[12]
  inhibition: -0.3%
[13]
  inhibition: 3%
[14]
  inhibition: 49.7%
[15]
  inhibition: 13.4%
Histamine H4 receptor [16]
  inhibition: 71.8%
[45]
  Kd: > 10000 nM (not active)
[17]
  inhibition: 23.8%
[46]
  Kd: > 50000 nM (not active)
[18]
  inhibition: 9.2%
[19]
  inhibition: 49.4%
[20]
  Ki: 226 nM
[21]
  inhibition: 25.9%
[22]
  inhibition: 8.1%
[23]
  inhibition: 8.5%
[24]
  inhibition: 12.9%
[47]
  inhibition: 9.5%
[25]
  inhibition: 20.5%
[26]
  inhibition: 36.9%
[27]
  inhibition: -9.9%
D(2) dopamine receptor [28]
  inhibition: 50%
[31]
  inhibition: 20.9%
Histamine H4 receptor [48]
  Ki: 3380 nM
[32]
  inhibition: 0.4%
[33]
  inhibition: -6.5%
[34]
  inhibition: 5.9%
Rattus norvegicus
  inhibition: 3.1%
[35]
  inhibition: 37.9%
[36]
  inhibition: 21.9%
[49]
  inhibition: 14.5%
[37]
  inhibition: -1.1%
[39]
  inhibition: 24.3%
[40]
  inhibition: 7.6%
[50]
  inhibition: 56.1%
[41]
  inhibition: 0.6%
[51]
  inhibition: 6.7%
D(2) dopamine receptor [52]
  Ki: > 10000 nM
[53]
  Ki: > 10000 nM
[54]
  Kd: 1050 nM (not active)
[55]
  inhibition: 17.2%

Source: ChEMBL document CHEMBL5058648, “Data for DCP probe SAFit2” (2022)
